Measurements from ChEMBL document CHEMBL4507282, “Data for DCP probe BI-1950” (2021).

Tests used:
[1] = molecular target: Cyclin-dependent kinase-like 2 (Homo sapiens) (UniProt Q92772); details: Compound concentration 1000.0 nM
[2] = molecular target: Ribosomal protein S6 kinase alpha-3 (Homo sapiens) (UniProt P51812); details: Compound concentration 1000.0 nM
[3] = molecular target: Dual specificity mitogen-activated protein kinase kinase 1 (Homo sapiens) (UniProt Q02750); details: Compound concentration 1000.0 nM
[4] = molecular target: Serine/threonine-protein kinase RIO1 (Homo sapiens) (UniProt Q9BRS2); details: Compound concentration 1000.0 nM
[5] = molecular target: Serine/threonine-protein kinase SIK1 (Homo sapiens) (UniProt P57059); details: Compound concentration 1000.0 nM
[6] = molecular target: Cyclin-dependent kinase 3 (Homo sapiens) (UniProt Q00526); details: Compound concentration 1000.0 nM
[7] = molecular target: Inhibitor of nuclear factor kappa-B kinase subunit alpha (Homo sapiens) (UniProt O15111); details: Compound concentration 1000.0 nM
[8] = molecular target: Calcium/calmodulin-dependent protein kinase kinase 1 (Homo sapiens) (UniProt Q8N5S9); details: Compound concentration 1000.0 nM
Chain of Calcium/calmodulin-dependent protein kinase kinase 1 (Homo sapiens) (Q8N5S9 whole entry, looked up): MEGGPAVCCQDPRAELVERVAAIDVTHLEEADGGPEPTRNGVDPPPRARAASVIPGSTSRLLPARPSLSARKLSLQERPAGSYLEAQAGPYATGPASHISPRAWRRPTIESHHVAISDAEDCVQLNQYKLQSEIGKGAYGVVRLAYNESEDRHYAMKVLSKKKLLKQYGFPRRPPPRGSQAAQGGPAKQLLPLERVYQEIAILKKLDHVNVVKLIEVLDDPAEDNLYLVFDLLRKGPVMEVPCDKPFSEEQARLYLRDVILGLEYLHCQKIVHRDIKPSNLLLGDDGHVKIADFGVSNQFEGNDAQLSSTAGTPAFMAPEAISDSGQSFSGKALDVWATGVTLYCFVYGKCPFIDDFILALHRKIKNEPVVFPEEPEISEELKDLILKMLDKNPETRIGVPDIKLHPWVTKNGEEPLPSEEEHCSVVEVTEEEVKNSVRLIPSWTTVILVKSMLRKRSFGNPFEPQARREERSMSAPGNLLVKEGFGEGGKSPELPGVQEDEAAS

[9] = molecular target: Serine/threonine-protein kinase Nek5 (Homo sapiens) (UniProt Q6P3R8); details: Compound concentration 1000.0 nM
Chain of Serine/threonine-protein kinase Nek5 (Homo sapiens) (Q6P3R8 whole entry): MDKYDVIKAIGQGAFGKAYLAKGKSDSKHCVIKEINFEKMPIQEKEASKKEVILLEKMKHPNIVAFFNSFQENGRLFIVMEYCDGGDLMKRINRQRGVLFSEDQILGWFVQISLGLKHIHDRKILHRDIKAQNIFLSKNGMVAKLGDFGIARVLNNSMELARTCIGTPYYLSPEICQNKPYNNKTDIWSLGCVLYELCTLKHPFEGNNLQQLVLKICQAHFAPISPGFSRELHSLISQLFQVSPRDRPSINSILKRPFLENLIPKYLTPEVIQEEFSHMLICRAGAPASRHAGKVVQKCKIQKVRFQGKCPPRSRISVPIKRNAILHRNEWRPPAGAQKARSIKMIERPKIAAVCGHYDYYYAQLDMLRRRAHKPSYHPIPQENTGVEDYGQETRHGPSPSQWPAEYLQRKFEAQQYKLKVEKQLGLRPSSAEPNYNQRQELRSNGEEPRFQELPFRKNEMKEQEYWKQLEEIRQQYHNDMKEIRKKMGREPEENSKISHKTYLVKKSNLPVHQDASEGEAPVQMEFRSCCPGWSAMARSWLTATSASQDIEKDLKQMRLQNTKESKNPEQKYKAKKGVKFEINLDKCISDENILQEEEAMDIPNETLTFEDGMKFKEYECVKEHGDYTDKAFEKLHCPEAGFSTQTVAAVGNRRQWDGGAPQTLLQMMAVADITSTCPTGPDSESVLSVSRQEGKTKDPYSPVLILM

[10] = molecular target: Dual specificity mitogen-activated protein kinase kinase 5 (Homo sapiens) (UniProt Q13163); details: Compound concentration 1000.0 nM
[11] = molecular target: Cyclin-dependent kinase 13 (Homo sapiens) (UniProt Q14004); details: Compound concentration 1000.0 nM
[12] = tested on: Epidermal growth factor receptor (Homo sapiens), P00533 [L861Q]; details: Compound concentration 1000.0 nM
[13] = molecular target: Serine/threonine-protein kinase Nek3 (Homo sapiens) (UniProt P51956); details: Compound concentration 1000.0 nM
[14] = molecular target: Serine/threonine-protein kinase Sgk1 (Homo sapiens) (UniProt O00141); details: Compound concentration 1000.0 nM
[15] = molecular target: G protein-coupled receptor kinase 3 (Homo sapiens) (UniProt P35626); details: Compound concentration 1000.0 nM
[16] = molecular target: Tyrosine-protein kinase JAK2 (Homo sapiens) (UniProt O60674); details: Compound concentration 1000.0 nM
[17] = molecular target: Dual serine/threonine and tyrosine protein kinase (Homo sapiens) (UniProt Q6XUX3); details: Compound concentration 1000.0 nM
[18] = molecular target: Phosphatidylinositol 5-phosphate 4-kinase type-2 gamma (Homo sapiens) (UniProt Q8TBX8); details: Compound concentration 1000.0 nM
[19] = molecular target: Tyrosine-protein kinase Mer (Homo sapiens) (UniProt Q12866); details: Compound concentration 1000.0 nM
[20] = molecular target: Mitogen-activated protein kinase kinase kinase 5 (Homo sapiens) (UniProt Q99683); details: Compound concentration 1000.0 nM
[21] = molecular target: Cyclin-dependent kinase 4 (Homo sapiens) (UniProt P11802); details: Compound concentration 1000.0 nM
Chain of Cyclin-dependent kinase 4 (Homo sapiens) (P11802 whole entry, canonical isoform): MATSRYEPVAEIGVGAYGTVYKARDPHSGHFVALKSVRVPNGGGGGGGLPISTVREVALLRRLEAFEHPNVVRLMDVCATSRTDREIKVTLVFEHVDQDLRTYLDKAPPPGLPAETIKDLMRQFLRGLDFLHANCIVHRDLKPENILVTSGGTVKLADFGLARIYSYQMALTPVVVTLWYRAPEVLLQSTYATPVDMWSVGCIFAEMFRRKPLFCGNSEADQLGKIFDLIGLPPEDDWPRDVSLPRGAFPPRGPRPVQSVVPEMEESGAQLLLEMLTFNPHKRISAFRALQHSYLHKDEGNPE

[22] = molecular target: Phosphorylase b kinase regulatory subunit alpha, liver isoform (Homo sapiens) (UniProt P46019); details: Compound concentration 1000.0 nM
[23] = molecular target: Tyrosine-protein kinase JAK1 (Homo sapiens) (UniProt P23458); details: Compound concentration 1000.0 nM
[24] = molecular target: Inhibitor of nuclear factor kappa-B kinase subunit epsilon (Homo sapiens) (UniProt Q14164); details: Compound concentration 1000.0 nM
[25] = molecular target: Mitogen-activated protein kinase kinase kinase kinase 5 (Homo sapiens) (UniProt Q9Y4K4); details: Compound concentration 1000.0 nM
[26] = molecular target: Phosphatidylinositol 4-kinase beta (Homo sapiens) (UniProt Q9UBF8); details: Compound concentration 1000.0 nM
[27] = molecular target: Serine/threonine-protein kinase 33 (Homo sapiens) (UniProt Q9BYT3); details: Compound concentration 1000.0 nM
[28] = molecular target: Mitogen-activated protein kinase 8 (Homo sapiens) (UniProt P45983); details: Compound concentration 1000.0 nM
[29] = molecular target: Mitogen-activated protein kinase 12 (Homo sapiens) (UniProt P53778); details: Compound concentration 1000.0 nM
Chain of Mitogen-activated protein kinase 12 (Homo sapiens) (P53778 whole entry): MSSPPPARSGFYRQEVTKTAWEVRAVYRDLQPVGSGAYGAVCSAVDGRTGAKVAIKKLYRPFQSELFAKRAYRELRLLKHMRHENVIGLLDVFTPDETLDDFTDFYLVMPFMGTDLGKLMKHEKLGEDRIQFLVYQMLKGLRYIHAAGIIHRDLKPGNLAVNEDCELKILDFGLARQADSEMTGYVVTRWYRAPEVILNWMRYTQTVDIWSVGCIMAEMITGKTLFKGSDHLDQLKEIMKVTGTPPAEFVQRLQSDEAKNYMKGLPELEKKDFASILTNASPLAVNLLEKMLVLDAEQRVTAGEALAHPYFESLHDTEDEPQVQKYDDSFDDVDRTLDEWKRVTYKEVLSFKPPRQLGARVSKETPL

[30] = molecular target: Sodium-dependent serotonin transporter (Homo sapiens) (UniProt P31645); details: Compound concentration 10.0 uM
[31] = molecular target: Tyrosine-protein kinase Lyn (Homo sapiens) (UniProt P07948); details: Compound concentration 1000.0 nM
[32] = molecular target: Dual specificity protein kinase CLK4 (Homo sapiens) (UniProt Q9HAZ1); details: Compound concentration 1000.0 nM
[33] = molecular target: Cyclin-dependent kinase 4 (Homo sapiens) (UniProt P11802); details: Compound concentration 1000.0 nM; remark: listed apart in the source
[34] = molecular target: Serine/threonine-protein kinase PAK 1 (Homo sapiens) (UniProt Q13153); details: Compound concentration 1000.0 nM
[35] = molecular target: MAP kinase-interacting serine/threonine-protein kinase 1 (Homo sapiens) (UniProt Q9BUB5); details: Compound concentration 1000.0 nM
[36] = molecular target: Aurora kinase B (Homo sapiens) (UniProt Q96GD4); details: Compound concentration 1000.0 nM
Chain of Aurora kinase B (Homo sapiens) (Q96GD4 whole entry): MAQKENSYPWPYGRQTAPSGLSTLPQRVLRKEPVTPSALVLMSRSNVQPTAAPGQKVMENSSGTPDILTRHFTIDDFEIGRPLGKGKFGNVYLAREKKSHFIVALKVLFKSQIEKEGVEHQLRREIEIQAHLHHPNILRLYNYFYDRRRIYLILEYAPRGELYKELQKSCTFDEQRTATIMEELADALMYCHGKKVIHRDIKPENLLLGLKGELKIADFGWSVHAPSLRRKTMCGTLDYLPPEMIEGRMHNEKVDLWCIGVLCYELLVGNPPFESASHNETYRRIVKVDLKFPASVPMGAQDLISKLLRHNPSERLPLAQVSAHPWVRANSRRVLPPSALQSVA

[37] = molecular target: Rhodopsin kinase GRK1 (Homo sapiens) (UniProt Q15835); details: Compound concentration 1000.0 nM
[38] = molecular target: Mitogen-activated protein kinase kinase kinase 1 (Homo sapiens) (UniProt Q13233); details: Compound concentration 1000.0 nM
[39] = tested on: Receptor-type tyrosine-protein kinase FLT3 (Homo sapiens), P36888 [D835V]; details: Compound concentration 1000.0 nM
[40] = molecular target: Mitogen-activated protein kinase 6 (Homo sapiens) (UniProt Q16659); details: Compound concentration 1000.0 nM
Chain of Mitogen-activated protein kinase 6 (Homo sapiens) (Q16659 whole entry): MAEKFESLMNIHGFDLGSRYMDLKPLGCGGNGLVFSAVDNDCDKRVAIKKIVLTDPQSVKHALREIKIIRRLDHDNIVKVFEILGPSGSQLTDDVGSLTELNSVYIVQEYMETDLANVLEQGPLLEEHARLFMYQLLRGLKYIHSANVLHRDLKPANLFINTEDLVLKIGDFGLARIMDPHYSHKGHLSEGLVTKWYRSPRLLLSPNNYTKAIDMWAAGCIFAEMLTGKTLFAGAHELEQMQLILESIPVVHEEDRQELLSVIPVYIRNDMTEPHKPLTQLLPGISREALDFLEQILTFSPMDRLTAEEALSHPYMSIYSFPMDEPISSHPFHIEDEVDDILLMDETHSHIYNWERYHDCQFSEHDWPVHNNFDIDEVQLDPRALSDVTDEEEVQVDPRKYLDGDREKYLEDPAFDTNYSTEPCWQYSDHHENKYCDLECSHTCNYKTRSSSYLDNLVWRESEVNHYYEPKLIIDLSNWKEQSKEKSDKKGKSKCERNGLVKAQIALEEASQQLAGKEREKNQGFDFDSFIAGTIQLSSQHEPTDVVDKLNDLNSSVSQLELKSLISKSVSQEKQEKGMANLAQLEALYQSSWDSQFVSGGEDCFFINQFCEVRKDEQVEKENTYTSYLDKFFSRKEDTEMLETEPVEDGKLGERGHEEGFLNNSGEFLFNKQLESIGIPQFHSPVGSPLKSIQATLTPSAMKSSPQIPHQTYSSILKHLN

[41] = molecular target: Protein kinase C theta type (Homo sapiens) (UniProt Q04759); details: Compound concentration 1000.0 nM
[42] = molecular target: Protein kinase C eta type (Homo sapiens) (UniProt P24723); details: Compound concentration 1000.0 nM
[43] = molecular target: Phosphatidylinositol 4-phosphate 5-kinase type-1 gamma (Homo sapiens) (UniProt O60331); details: Compound concentration 1000.0 nM
[44] = molecular target: Serine/threonine-protein kinase LATS2 (Homo sapiens) (UniProt Q9NRM7); details: Compound concentration 1000.0 nM
Chain of Serine/threonine-protein kinase LATS2 (Homo sapiens) (Q9NRM7 whole entry, the tested form may be a part): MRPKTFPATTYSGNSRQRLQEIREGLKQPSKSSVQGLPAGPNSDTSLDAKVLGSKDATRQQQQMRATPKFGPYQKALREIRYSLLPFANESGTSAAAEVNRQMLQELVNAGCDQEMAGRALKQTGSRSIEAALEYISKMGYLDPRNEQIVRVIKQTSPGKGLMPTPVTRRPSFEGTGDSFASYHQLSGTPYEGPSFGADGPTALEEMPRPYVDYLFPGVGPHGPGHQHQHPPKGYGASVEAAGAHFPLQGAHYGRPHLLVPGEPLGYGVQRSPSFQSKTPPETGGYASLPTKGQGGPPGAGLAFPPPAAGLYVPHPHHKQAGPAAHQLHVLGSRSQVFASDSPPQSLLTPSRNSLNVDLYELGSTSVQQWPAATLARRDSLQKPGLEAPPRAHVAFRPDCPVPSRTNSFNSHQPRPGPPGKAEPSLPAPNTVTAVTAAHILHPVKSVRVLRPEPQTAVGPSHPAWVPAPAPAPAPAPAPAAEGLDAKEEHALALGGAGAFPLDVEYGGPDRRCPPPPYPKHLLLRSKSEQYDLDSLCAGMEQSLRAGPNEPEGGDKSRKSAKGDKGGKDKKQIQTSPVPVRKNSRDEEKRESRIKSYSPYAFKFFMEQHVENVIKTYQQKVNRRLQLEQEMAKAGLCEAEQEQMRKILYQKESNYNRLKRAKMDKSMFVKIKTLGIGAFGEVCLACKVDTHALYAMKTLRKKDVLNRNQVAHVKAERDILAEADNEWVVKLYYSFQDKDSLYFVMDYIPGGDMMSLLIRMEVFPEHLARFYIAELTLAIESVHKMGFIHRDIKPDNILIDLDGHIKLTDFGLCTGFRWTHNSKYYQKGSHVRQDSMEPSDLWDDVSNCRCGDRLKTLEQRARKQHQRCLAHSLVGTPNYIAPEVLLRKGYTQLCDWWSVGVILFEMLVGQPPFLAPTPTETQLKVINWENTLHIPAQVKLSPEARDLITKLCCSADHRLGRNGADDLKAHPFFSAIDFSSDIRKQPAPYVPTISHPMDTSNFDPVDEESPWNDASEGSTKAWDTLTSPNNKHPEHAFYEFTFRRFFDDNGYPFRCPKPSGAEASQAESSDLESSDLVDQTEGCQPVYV

[45] = molecular target: Ankyrin repeat and protein kinase domain-containing protein 1 (Homo sapiens) (UniProt Q8NFD2); details: Compound concentration 1000.0 nM
Chain of Ankyrin repeat and protein kinase domain-containing protein 1 (Homo sapiens) (Q8NFD2 whole entry, the tested form may be a part): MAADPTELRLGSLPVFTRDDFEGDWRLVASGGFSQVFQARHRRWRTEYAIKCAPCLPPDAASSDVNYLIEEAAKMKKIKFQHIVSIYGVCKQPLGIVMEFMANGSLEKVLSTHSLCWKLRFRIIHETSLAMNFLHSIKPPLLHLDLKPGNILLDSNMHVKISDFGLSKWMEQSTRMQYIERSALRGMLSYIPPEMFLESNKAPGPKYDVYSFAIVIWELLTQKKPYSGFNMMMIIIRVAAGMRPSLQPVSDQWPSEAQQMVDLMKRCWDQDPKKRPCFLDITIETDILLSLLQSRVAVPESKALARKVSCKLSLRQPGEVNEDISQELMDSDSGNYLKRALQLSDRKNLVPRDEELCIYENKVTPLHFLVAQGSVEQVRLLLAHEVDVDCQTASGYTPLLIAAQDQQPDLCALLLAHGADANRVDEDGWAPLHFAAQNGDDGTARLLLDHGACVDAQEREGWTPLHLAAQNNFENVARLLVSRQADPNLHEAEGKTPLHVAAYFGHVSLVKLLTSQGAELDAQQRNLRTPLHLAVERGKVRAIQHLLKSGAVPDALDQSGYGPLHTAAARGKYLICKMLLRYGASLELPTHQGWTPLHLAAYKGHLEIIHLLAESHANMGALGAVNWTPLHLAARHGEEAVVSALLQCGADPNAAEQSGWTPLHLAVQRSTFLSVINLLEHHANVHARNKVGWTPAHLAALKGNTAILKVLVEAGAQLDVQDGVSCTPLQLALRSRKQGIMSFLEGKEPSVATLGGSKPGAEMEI

C[C@@]1(Cc2ccc(C#N)cc2)C(=O)N(c2cc(Cl)cc(Cl)c2)c2ncc(C(=O)NC3(c4nc(C5CCC5)no4)CC3)n21 [BI 9446]
inactive: residual activity [1] 100% | residual activity [2] 100% | residual activity [3] 97% | residual activity [4] 100% | residual activity [5] 100% | residual activity [6] 100% | residual activity [7] 100% | residual activity [8] 100% | residual activity [9] 100% | residual activity [10] 100% | residual activity [11] 100% | residual activity [12] 100% | residual activity [13] 100% | residual activity [14] 100% | residual activity [15] 100% | residual activity [16] 100% | residual activity [17] 95% | residual activity [18] 100% | residual activity [19] 100% | residual activity [20] 100% | residual activity [21] 100% | residual activity [22] 100% | residual activity [23] 100% | residual activity [24] 80% | residual activity [25] 93% | residual activity [26] 100% | residual activity [27] 100% | residual activity [28] 100% | residual activity [29] 100% | inhibition [30] 5.35% | residual activity [31] 95% | residual activity [32] 97% | residual activity [33] 100% | residual activity [34] 99% | residual activity [35] 100% | residual activity [36] 100% | residual activity [37] 100% | residual activity [38] 100% | residual activity [39] 100% | residual activity [40] 100% | residual activity [41] 98% | residual activity [42] 100% | residual activity [43] 100% | residual activity [44] 92% | residual activity [45] 100%

C[C@H](NC(=O)c1cnc2n1[C@](C)(Cc1ccc(C#N)cc1)C(=O)N2c1cc(Cl)c(F)c(Cl)c1)C(=O)NC1(c2ccccn2)CC1 [BI 1950]
inactive: residual activity [1] 100% | residual activity [2] 100% | residual activity [3] 92% | residual activity [4] 100% | residual activity [5] 100% | residual activity [6] 100% | residual activity [7] 100% | residual activity [8] 100% | residual activity [9] 100% | residual activity [10] 100% | residual activity [11] 100% | residual activity [12] 100% | residual activity [13] 100% | residual activity [14] 100% | residual activity [15] 100% | residual activity [16] 100% | residual activity [17] 87% | residual activity [18] 100% | residual activity [19] 99% | residual activity [20] 92% | residual activity [21] 100% | residual activity [22] 100% | residual activity [23] 100% | residual activity [24] 89% | residual activity [25] 94% | residual activity [26] 100% | residual activity [27] 88% | residual activity [28] 81% | residual activity [29] 100% | inhibition [30] -4.33% | residual activity [31] 100% | residual activity [32] 88% | residual activity [33] 100% | residual activity [34] 95% | residual activity [35] 93% | residual activity [36] 100% | residual activity [37] 100% | residual activity [38] 100% | residual activity [39] 100% | residual activity [40] 100% | residual activity [41] 100% | residual activity [42] 90% | residual activity [43] 80% | residual activity [44] 100% | residual activity [45] 100%
